Measured values as given in publication PMC12430443, “Discovery of Novel Benzamide-Based Sigma-1 Receptor Agonists with Enhanced Selectivity and Safety” (Molecules, 2025).

Key:
[1] = biological target: serotonin 5-HT2A receptor (Homo sapiens, UniProt P28223); test: Off-target panel, aequorin functional assay; assay type: cell-based; conditions: 10 µM, duplicate; % inhibition of reference agonist activity
Procedure: Among the synthesized compounds, four derivatives were selected based on their affinity and selectivity profiles. […] The remaining compounds (2, 3, 6, and 7) were assessed for their agonist and antagonist activities across a panel of 58 receptors relevant to CNS disorders, including serotonin, adenosine, adrenergic, cannabinoid, dopamine, histamine, and muscarinic receptors. These assays were conducted at a concentration of 10 µM, in duplicate, utilizing aequorin [19], cAMP HTRF™ [20], and GTPγS binding assays, as detailed in Table 2. […] Specifically, compound 6 antagonized four receptors (5-HT2A, 5-HT2C, α1a, H1), while compound 7 was active against five receptors (5-HT2A, 5-HT3, α1a, H1, M1).
Rapidly, the tests were performed by Euroscreen (https://euroscreenfast.com/) with recombinant human G-coupled receptor-expressing cell lines using aequorin functional assays for serotonin 5-HT2A, 5-HT2B, 5-HT2C, 5-HT3, and 5-HT5A, adrenergic α1a and α1b, angiotensin AT1, cholesistokinin CCFK1, endothelin ETA, histamine H1, muscarinic M1 and M3, neurokinin NK1 and NK2, vasopressin V1a, and vasoactive intestinal peptide VPAC1 receptor analysis. Then, cAMP HTRF^TM assays were used to analyze serotonin 5-HT1A, 5-HT4E, 5-HT6, and 5-HT7, adenosine A1, A2A, and A3, adrenergic β1 and β2, cannabinoid CB1, dopamine D1, histamine H2, and neuropeptide Y NPY receptors. GTPγS^35 assays were used to analyze serotonin 5-HT1B, adrenergic α2a and α2b, dopamine D2, muscarinic M2 and M4, opioid δ, κ and µ, and somatostatine SST4 receptors.
Agonist and antagonist activities of the test compound are expressed as the percentage of the activity of the reference agonist at its EC100 concentration or the percentage of inhibition of the reference agonist activity at its EC80 concentration, respectively.
For the aequorin assays, different cell lines co-expressing the receptors were grown in specific culture media and incubated for 4 h with coelenterazine h. For agonist testing, cell suspensions were mixed with test or reference agonists in a 96-well plate. For antagonist testing, the reference agonist at its EC80 (final concentration) was injected to the mix the containing cells and the tested compound. The resulting emission of light was recorded using the Hamamatsu Functional Drug Screening System 6000 [19].

S2R = biological target: T1, S2R (Homo sapiens, UniProt Q5BJF2); test: S2R competitive radioligand binding, [3H]-DTG with excess (+)-pentazocine, Jurkat cell membranes; conditions: [3H]-DTG displacement with excess (+)-pentazocine, n = 2
T1 construct: For the S2R assay, Jurkat cell membranes (10–20 μg protein/tube) were incubated at room temperature for 1 h; host or cells: Jurkat cell membranes
T1 sequence (Q5BJF2 whole entry): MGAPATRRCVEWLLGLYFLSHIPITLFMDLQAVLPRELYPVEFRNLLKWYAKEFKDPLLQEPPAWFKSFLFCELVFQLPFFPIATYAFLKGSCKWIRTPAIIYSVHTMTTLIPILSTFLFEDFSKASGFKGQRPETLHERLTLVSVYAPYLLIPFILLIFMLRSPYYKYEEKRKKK
Text: S1R and S2R affinities were classically evaluated through competitive binding assays using radioligands, following the protocol described by Ganapathy et al.. The selective radioligand [^3H] (+)-pentazocine was employed as the classic prototypical ligand, selectively binding to the orthosteric S1R-binding sites. […] Jurkat cell membranes served as the receptor source in both assays. The equilibrium dissociation constants (Ki) for S1R and S2R were derived from the IC50 values of each compound, and selectivity ratios (S2R/S1R) were subsequently calculated (Table 1, Figures S2 and S3).
Binding assays were performed by Eurofins Cerep (Poitiers, France) according to the protocol of Ganapathy. […] For the S2R assay, Jurkat cell membranes (10–20 μg protein/tube) were incubated at room temperature for 1 h in the same buffer with [^3H]-DTG (25 nM) in the presence of (+)-pentazocine (1 μM) to saturate S1R, along with a range of test compound concentrations. Bound radioactivity was quantified by liquid scintillation counting. Nonspecific binding was determined under identical conditions in the presence of 10 μM unlabeled haloperidol. The IC50 values (concentration causing a half-maximal inhibition of control-specific binding) and Hill coefficients (nH) were determined by non-linear regression analysis of the competition curves generated with mean replicate values using Hill equation curve-fitting. This analysis was performed using software developed at Cerep (Hill software) and validated by comparison with data generated by the commercial software SigmaPlot ®4.0 for Windows® (©1997 by SPSS Inc.). Inhibition constants (Ki) were calculated from IC50 values using the method of Cheng and Prusoff.

CYP2D6 = biological target: T2, CYP2D6 (Homo sapiens, UniProt P10635); test: CYP inhibition in human liver microsomes; assay type: in vitro ADME; conditions: n = 2, read-out: CYP inhibition 2D6
T2 construct: tissue Eurofins Cerep (assay provider); host or cells: human liver microsomes
T2 sequence (P10635 whole entry): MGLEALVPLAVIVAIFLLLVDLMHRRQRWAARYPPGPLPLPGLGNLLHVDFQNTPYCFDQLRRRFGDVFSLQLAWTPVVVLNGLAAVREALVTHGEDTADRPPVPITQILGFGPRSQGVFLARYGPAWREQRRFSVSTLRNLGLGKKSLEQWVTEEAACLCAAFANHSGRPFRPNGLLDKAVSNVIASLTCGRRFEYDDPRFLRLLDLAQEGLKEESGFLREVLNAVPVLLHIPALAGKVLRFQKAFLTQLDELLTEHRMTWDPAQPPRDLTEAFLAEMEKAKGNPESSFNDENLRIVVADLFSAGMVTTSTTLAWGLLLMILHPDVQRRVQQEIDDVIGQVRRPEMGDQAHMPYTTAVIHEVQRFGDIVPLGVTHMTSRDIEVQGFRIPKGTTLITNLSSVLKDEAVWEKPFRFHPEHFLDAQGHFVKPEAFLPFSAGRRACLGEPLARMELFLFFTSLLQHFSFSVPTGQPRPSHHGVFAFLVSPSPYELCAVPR
Procedure: (§1) Microsomal stability was evaluated using human liver microsomes at 10 µM (Table 3). […] Since cytochrome P450 (CYP) enzymes—especially families 1 to 3—play major roles in drug metabolism, CYP inhibition was tested against the human isoforms CYP1A, 2B6, 2C8, 2C9, 2C19, 2D6, and 3A, as recommended by FDA and EMA guidelines. […] Membrane transport proteins, including the ATP-binding cassette (ABC) and solute carrier (SLC) families, affect drug pharmacokinetics and potential drug–drug interactions. The inhibitory effects of compounds 2 and 6 were assessed against five ABC transporters (P-gp, BCRP, MRP1, MRP2, and MRP3) and seven SLC transporters (OAT1, OAT3, OATP1B1, OCT1, OCT2, ASBT, and NTCP).
(§2) Standardized in vitro ADME experiments were performed by Eurofins Cerep (Poitiers, France). Solubility assays were performed in PBS at pH 7.4, but also in simulated gastric fluid (SGF) and intestinal fluid (SIF), through the classical shake-flask method described by Lipinski et al., using HPLC-UV/VIS technology. The results were expressed in µM. The compound was classically evaluated at 10 µM for all of the ADME analyses. Bidirectional permeability (apical A to basolateral B pH 6.5/7.4, and basolateral B to apical A pH 7.4/6.5) was assessed in the epithelial colorectal adenocarcinoma cell line (Caco-2 cell line). The results were expressed as ×10^−6 cm/s (Papp) and as % recovery. The efflux ratio, i.e., Papp (B→A)/Papp(A→B), was calculated. Plasma protein binding was analyzed by HPLC-MS/MS after 4 h of incubation at 37 °C, as described by Banker et al.. Concentration was evaluated by LC/MS-MS. CYP inhibition was performed in human liver microsomes as described in [28]. Analysis of the respective metabolites was performed by HPLC-MS/MS. Transporter inhibition analysis was also performed in overexpressing cell lines. Respective metabolites for each specific transporter substrate were analyzed by fluorometry or scintillation counting, and % inhibition of control values were calculated. P-glycoprotein transporter substrate assessment was performed by bidirectional permeability analysis (apical A to basolateral B pH 7.4/7.4, and basolateral B to apical A pH 7.4/7.4) in the Caco-2 cell line with and without verapamil, as described in [26]. The results were expressed as ×10^−6 cm/s (Papp) and as % recovery. The efflux ratio was calculated as Papp(B→A)/Papp(A→B). CYP450 induction was assessed in human hepatocytes by measuring the mRNA levels of seven CYP isoforms via qPCR, as described in [40]. The compound was tested at 1, 10, and 100 μM, and fold-induction values were compared with predefined cut-off thresholds for each isoform and hepatocyte lot.

CYP2C8 = biological target: T3, CYP2C8 (Homo sapiens, UniProt P10632); test: CYP inhibition in human liver microsomes; assay type: in vitro ADME; conditions: n = 2, read-out: CYP inhibition 2C8
T3 construct: tissue Eurofins Cerep (assay provider); host or cells: human liver microsomes
T3 sequence (P10632 whole entry): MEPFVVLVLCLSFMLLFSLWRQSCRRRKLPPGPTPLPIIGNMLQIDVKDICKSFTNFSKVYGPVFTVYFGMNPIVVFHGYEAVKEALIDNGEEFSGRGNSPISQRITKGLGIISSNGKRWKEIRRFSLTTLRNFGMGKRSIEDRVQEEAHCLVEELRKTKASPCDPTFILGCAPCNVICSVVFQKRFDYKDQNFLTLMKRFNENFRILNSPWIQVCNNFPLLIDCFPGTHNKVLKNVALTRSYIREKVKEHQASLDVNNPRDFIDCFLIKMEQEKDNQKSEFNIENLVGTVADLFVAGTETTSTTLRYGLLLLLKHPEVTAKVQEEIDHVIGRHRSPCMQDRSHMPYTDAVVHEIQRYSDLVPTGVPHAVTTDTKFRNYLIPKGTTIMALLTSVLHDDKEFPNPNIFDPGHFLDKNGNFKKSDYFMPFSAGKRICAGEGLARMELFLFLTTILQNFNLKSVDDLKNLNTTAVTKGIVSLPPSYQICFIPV
Procedure: as §1, §2

Sequence of serotonin 5-HT2A receptor (P28223 whole entry): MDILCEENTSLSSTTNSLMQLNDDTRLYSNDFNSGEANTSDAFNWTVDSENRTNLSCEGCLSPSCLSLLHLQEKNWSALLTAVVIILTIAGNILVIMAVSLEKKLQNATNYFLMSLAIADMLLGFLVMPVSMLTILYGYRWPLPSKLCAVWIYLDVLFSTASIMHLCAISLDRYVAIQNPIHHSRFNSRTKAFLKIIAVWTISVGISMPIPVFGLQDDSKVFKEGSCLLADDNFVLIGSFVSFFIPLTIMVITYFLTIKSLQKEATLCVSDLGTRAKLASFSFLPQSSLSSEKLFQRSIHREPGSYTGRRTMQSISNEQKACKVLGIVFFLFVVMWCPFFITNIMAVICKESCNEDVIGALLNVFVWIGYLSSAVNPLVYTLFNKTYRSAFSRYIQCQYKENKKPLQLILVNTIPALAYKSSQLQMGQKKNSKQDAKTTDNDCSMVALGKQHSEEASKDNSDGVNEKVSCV

| SMILES | 5-HT2A [b] antagonist activity [1] | IC50 (S2R) [nM] | inhibition at 10 µM (CYP2D6) [%] | inhibition at 10 µM (CYP2C8) [%] |
| --- | --- | --- | --- | --- |
| CN(CCC(=O)NCc1cccc(Cl)c1)Cc1ccccc1 [Compound 2, 3-(Benzylmethylamino)-N-(3-chlorobenzyl)propanamide] | 72% | 270 | 80.5 | -16.8 |
| CN(CCC(=O)NCc1ccc(C#N)cc1)Cc1ccccc1 [Compound 6, 3-(Benzylmethylamino)-N-(4-cyanobenzyl)propanamide] | antagonized | 2400 | 87.7 | -12.1 |
